Laboratory results published in patent US7608407B2, “Fluorescence polarization assay for determining histidine decarboxylase activity” (Boehringer Ingelheim Pharmaceuticals, Inc., priority 2004, dated 2009).
Blank lines part the entries; values can stand above or below the compound they belong to.

Experiments:
[1] = molecular target: anti-histamine antibody D22.12; assay: Displacement of FITC-histamine binding to the anti-histamine antibody by competitor ligand; design: species or system mice
Description: Triplicate determinations in a 96-well plate were performed as described in the Methods, with 6 nM FITC-histamine, 50 nM anti-histamine antibody, and the indicated concentration of competitor ligand.
(§1) In the standard assay, HDC, diluted to 90 nM in HDC Buffer plus 0.9 mM DTT and 99 μM PLP, was added to a black opaque 384-well plate in 20 μL. Test compound in HDC Buffer plus 6% DMSO or buffer alone was added to the plate in 10 μL. 36 nM FITC-histidine and 3.6 mM histidine were combined in FP Buffer and transferred to the plate in 10 μL. Finally, 90 nM […] antibody was added in 20 μL of FP Buffer. Thus, the final concentrations in the assay were: HDC 30 nM, FITC-histidine 6 nM, histidine 600 μM, anti-histamine antibody 30 nM, DMSO 1%. The plate was incubated at 37° C. for 90 minutes. The fluorescence polarization signal was read on an LJL Analyst (Molecular Devices, Sunnyvale, Calif.) with excitation at 485 nm, emission at 530 nm, a fluorescein dichroic mirror at 505 nm and G factor set to 1. A 96-well plate version of the assay, used in assay development, was performed as described above with twice the volumes indicated for 384-well plates.
We first determined the affinity of the probe for the antibody and the specificity of the interaction, both of which are crucial to constructing a robust assay in a competitive mode. […] The probe concentration was held at 6 nM and the antibody concentration varied over approximately 3 logs. […] Probe and antibody concentrations were held constant at 6 and 50 nM, respectively, while the concentrations of histamine and histidine were varied as shown.

HDC = molecular target: T1, HDC (Mus musculus, UniProt P23738); conditions: Watabe et al 1992; read-out: Reported Km; cited from earlier work
T1 sequence (P23738 1-662): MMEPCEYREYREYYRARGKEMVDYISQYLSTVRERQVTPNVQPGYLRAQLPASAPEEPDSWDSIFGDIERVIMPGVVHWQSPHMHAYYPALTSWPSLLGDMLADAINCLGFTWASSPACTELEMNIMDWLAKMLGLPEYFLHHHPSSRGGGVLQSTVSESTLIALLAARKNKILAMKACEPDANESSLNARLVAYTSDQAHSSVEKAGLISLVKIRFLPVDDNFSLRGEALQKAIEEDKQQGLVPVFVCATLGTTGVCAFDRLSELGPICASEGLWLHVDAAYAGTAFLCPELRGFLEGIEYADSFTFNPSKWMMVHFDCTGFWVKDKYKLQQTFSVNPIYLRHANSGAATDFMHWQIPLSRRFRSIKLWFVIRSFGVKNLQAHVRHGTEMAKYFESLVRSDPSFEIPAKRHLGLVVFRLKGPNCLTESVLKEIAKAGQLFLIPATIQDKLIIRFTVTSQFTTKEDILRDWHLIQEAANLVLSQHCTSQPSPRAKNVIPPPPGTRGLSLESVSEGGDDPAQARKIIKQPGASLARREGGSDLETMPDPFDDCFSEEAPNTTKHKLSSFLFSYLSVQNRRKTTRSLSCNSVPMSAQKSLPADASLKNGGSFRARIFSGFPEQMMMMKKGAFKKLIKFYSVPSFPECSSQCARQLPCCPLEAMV

human HDC = molecular target: T2, human HDC (Homo sapiens, UniProt P19113); assay: Histidine decarboxylase fluorescence polarization standard assay; assay type: biochemical; conditions: standard assay: 30 nM HDC, 600 μM histidine, 90 minutes at 37° C.; read-out: IC50 for inhibition of HDC
T2 construct: containing the first 1431 bases (amino acid residues 1-477) of HDC; made in house; host or cells: Sf9 insect cells (baculovirus, pDEST 20)
T2 sequence (P19113 1-477 S148Q): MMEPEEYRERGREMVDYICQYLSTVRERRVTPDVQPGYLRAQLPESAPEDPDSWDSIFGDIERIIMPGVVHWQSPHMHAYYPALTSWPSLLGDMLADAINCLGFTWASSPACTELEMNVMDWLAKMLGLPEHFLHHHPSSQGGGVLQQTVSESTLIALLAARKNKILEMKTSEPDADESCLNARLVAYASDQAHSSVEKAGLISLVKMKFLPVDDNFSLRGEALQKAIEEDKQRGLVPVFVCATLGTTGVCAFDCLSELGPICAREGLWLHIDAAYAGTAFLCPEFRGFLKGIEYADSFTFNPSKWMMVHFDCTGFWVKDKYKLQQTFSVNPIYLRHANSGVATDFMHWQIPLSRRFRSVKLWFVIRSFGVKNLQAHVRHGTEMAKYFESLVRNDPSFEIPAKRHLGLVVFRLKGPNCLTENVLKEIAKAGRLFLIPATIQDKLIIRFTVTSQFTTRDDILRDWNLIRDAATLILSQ
Description: as §1

[2] = molecular target: anti-histamine antibody D22.12; conditions: read-out: Kd (dissociation constant) of probe for antibody; FITC-histamine at 6 nM, antibody concentration varied over approximately 3 logs
Description: as §1
We first determined the affinity of the probe for the antibody and the specificity of the interaction, both of which are crucial to constructing a robust assay in a competitive mode. […] The probe concentration was held at 6 nM and the antibody concentration varied over approximately 3 logs. […]

IC50 ([1]; 6 nM FITC-histamine, 50 nM anti-histamine antibody, read-out: IC50 for competition with the probe for antibody binding): 135 µM | Selectivity for histamine over histidine ([1]; FP assay): > 100 fold
Compound: NCCc1c[nH]cn1 [Histamine, histamine]

Competition with FITC-histamine for binding to the antibody ([1]; 6 nM FITC-histamine, 50 nM antibody, over the 5 log range examined): unable to compete
Compound: N[C@@H](Cc1c[nH]cn1)C(=O)O [Histidine, L-Histidine]
Km (HDC): 200 to 400 µM

IC50 (human HDC): 7.7 µM
Compound: COC(=O)C(N)Cc1c[nH]cn1 (stereo not shown) [methyl ester histidine]

IC50 (human HDC): 1.4 µM
Compound: N[C@@](CF)(Cc1cnc[nH]1)C(=O)O [α-fluoromethyl histidine]

Kd [2]: 0.0039 µM
Compound: N-[3′,6′-dihydroxy-3-oxospiro[isobenzofuran-[(3H), 9′-[9H]xanthene-5(or 6)-yl]-N′-[2-(1H-imidazol-4-yl)ethyl]-2,4-dimethylthiourea, disodium salt [FITC-histamine]
